A value given as a limit tells only on which side of the number the result lay.

The subject of data set [1] is Puccinia recondita f. sp. Tritici. Put plainly: Puccinia recondita f. sp. tritici / wheat / leaf disc preventative (brown rust). As to conditions: foliar, wheat leaf segments cv Kanzler, inoculated 1 day after application, assessed 7-9 days after application, read-out: control of Puccinia recondita f. sp. Tritici (percent disease control compared to untreated). The class given is in vivo. Summed up:
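Preventative test: percent disease control relative to untreated leaf segments was assessed 7-9 days post-application. Wheat (cv Kanzler) leaf discs were treated at 200 ppm and spore-inoculated 1 day afterwards. Discs were held at 19° C and 75% relative humidity under a 12/12 h light cycle.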

Data set [2] shares this test system. Put plainly: Puccinia recondita f. sp. tritici / wheat / leaf disc curative (brown rust). The class given is in vivo. The settings on record: foliar, wheat leaf segments cv Kanzler, applied 1 day after inoculation, assessed 6-8 days after application, read-out: control of Puccinia recondita f. sp. Tritici (percent disease control compared to untreated). As for the experimental part:
Puccinia recondita f. Sp. Tritici/Wheat/Leaf Disc Curative (Brown Rust): Wheat leaf segments cv Kanzler were placed on agar in 24-well plates. The leaf segments were inoculated with a spore suspension of the fungus. The plates were stored in darkness at 19° C. and 75% relative humidity. The formulated test compound diluted in water was applied at an application rate of 200 ppm 1 day after inoculation. […] Tritici at 200 ppm when compared to untreated control leaf disks under the same conditions, which show extensive disease development: 2, 13, 16, 23, 30, 61, 75, 89, 103, 173, 174

The next data set relates to Pyrenophora teres. Nature of the data set: Pyrenophora teres / barley / leaf disc preventative (net blotch). The settings on record: foliar, barley leaf segments cv Hasso, inoculated two days after application, assessed 5-7 days after application, read-out: control of Pyrenophora teres (disease control compared to untreated). Format: in vivo. Summed up:
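Preventative leaf-disc test: 200 ppm spray, then spore inoculation after two days on barley cv Hasso segments. Incubation 20 °C, 65% relative humidity, 12 h light/12 h dark; efficacy rated against untreated checks at 5-7 days post-application.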

Data set [3] deals with Botryotinia fuckeliana (Botrytis cinerea). Nature of the data set: Botryotinia fuckeliana (Botrytis cinerea) / liquid culture (gray mould). Format: cell-based. The settings on record: Vogels broth, 24° C., 3-4 days after application, read-out: control of Botryotinia fuckeliana (inhibition of growth, photometric). Summed up: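 Test compound was applied at 200 ppm in DMSO, then Vogels nutrient broth containing cryo-stored B. cinerea conidia was added. Photometric growth-inhibition reading followed after 3-4 days at 24 °C.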

The test system of data set [4] is Mycosphaerella graminicola (Septoria tritici). Put plainly: Mycosphaerella graminicola (Septoria tritici) / liquid culture (Septoria blotch). The class given is cell-based. The settings on record: Zymoseptoria tritici, PDB, 24° C., 4-5 days after application, read-out: control of Mycosphaerella graminicola (inhibition of growth, photometric). Summed up:
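Growth inhibition was read photometrically after 4–5 days at 24 °C. The test compound was applied at 200 ppm from DMSO solution, then PDB broth seeded with conidia taken straight from cryogenic storage was added.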

The next data set deals with Gaeumannomyces graminis. Nature of the data set: Gaeumannomyces graminis / liquid culture (take-all of cereals). The class given is cell-based. As to conditions: PDB, 24° C., 4-5 days after application, read-out: control of Gaeumannomyces graminis (inhibition of growth, photometric). Summed up:
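Growth inhibition, measured by photometry 4-5 days post-application at 24 °C, of fungal mycelial fragments in PDB broth. Test compound applied as DMSO solution at 200 ppm.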

The subject of data set [5] is Thanatephorus cucumeris (Rhizoctonia solani). Put plainly: Thanatephorus cucumeris (Rhizoctonia solani) / liquid culture (foot rot, damping-off). Format: cell-based. The settings on record: PDB, 24° C., 3-4 days after application, read-out: control of Thanatephorus cucumeris (inhibition of growth, photometric). Summed up: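 At 200 ppm, compounds in DMSO were combined with fresh liquid-culture mycelia in PDB and kept at 24° C; photometric measurement of growth inhibition after 3-4 days.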

The test system of data set [6] is Blumeria graminis f. Sp. Tritici (Erysiphe graminis f. Sp. Tritici). Nature of the data set: Blumeria graminis f. sp. tritici / wheat / leaf disc preventative (powdery mildew on wheat). Format: in vivo. As to conditions: foliar, wheat leaf segments cv. Kanzler, inoculated 1 day after application, assessed 6-8 days after application, read-out: control of Blumeria graminis (percent disease control compared to untreated). Summed up: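 Wheat leaf segments (cv. Kanzler) on agar sprayed with formulated compound at 200 ppm, inoculated with powdery mildew 1 day later. Held at 20 °C, 60% RH, 24 h dark then 12 h/12 h light; percent disease control versus untreated scored 6-8 days after application.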

The subject of data set [7] is Fusarium graminearum, syn. Gibberella zeae. Nature of the data set: whole plant or invertebrate. The class given is in vivo. As to conditions: in Triticum aestivum, 144 h, read-out: control of Gibberella zeae (preventative fungicidal activity).
Data set [8] relates to Phaeosphaeria nodorum (Septoria nodorum). Put plainly: Phaeosphaeria nodorum (Septoria nodorum) / wheat / leaf disc preventative (glume blotch). Format: in vivo. The settings on record: Parastagonospora nodorum, foliar, wheat leaf segments cv Kanzler, inoculated 2 days after application, assessed 5-7 days after application, read-out: control of Phaeosphaeria nodorum (percent disease control compared to untreated). Summed up:
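Wheat leaf segments (cv Kanzler) on agar sprayed with compound at 200 ppm, inoculated with spores 2 days later. Incubated at 20° C., 75% relative humidity, 12/12 h light/dark; percent disease control versus untreated scored 5-7 days after application.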

Data set [9] relates to Glomerella lagenarium (Colletotrichum lagenarium). Nature of the data set: Glomerella lagenarium (Colletotrichum lagenarium) / liquid culture (anthracnose). The class given is cell-based. As to conditions: Colletotrichum orbiculare, PDB, 24° C., 3-4 days after application, read-out: control of Glomerella lagenarium (inhibition of growth, photometric). Summed up:
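Test compound, delivered in DMSO at an application rate of 200 ppm, was combined with spore-containing PDB. Photometric growth-inhibition measurement followed 3-4 days of incubation at 24° C.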

Another data set concerns Sclerotinia sclerotiorum. Put plainly: Sclerotinia sclerotiorum liquid culture (cottony rot / white mold). The class given is cell-based. The settings on record: PDB, 24° C., 3-4 days after application, read-out: control of Sclerotinia sclerotiorum (inhibition of growth, photometric). Summed up:
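Mycelia fragments of Sclerotinia sclerotiorum in potato dextrose broth were added to compound in DMSO. Cultures incubated at 24° C; growth inhibition determined photometrically 3-4 days after application.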

In the next data set the test system is Plasmopara viticola. Nature of the data set: Plasmopara viticola / grape / leaf disc preventative. The settings on record: foliar, grape vine leaf disks, inoculated 1 day after application, assessed 6-8 days after application, read-out: control of Plasmopara viticola (percent disease control compared to untreated). The class given is in vivo.
Data set [10] relates to Mycosphaerella arachidis (Cercospora arachidicola). Nature of the data set: Mycosphaerella arachidis (Cercospora arachidicola) / liquid culture (early leaf spot). The class given is cell-based. As to conditions: PDB, 24° C., 4-5 days after application, read-out: control of Mycosphaerella arachidis (inhibition of growth, photometric). Summed up:
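Conidia suspended in potato dextrose broth and added to test compound from DMSO solution at 200 ppm. Incubated at 24 °C; growth inhibition read photometrically 4-5 days after application.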

In data set [11] the test system is Monographella nivalis (Microdochium nivale). Put plainly: Monographella nivalis (Microdochium nivale) / liquid culture (foot rot cereals). The class given is cell-based. The settings on record: PDB, 24° C., 4-5 days after application, read-out: control of Monographella nivalis (inhibition of growth, photometric). Summed up: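 Cryostored conidia in potato dextrose broth were added to test compound dispensed from DMSO at 200 ppm. Plates were kept at 24° C, and growth inhibition was read photometrically 4-5 days after application.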

Another data set deals with Pythium ultimum. Nature of the data set: Pythium ultimum / liquid culture (seedling damping off). The class given is cell-based. The settings on record: Globisporangium ultimum, potato dextrose broth, 24° C., 2-3 days after application, read-out: control of Pythium ultimum (inhibition of growth, photometric). Summed up: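 Test compound in DMSO at 200 ppm was incubated with mycelia fragments and oospores in potato dextrose broth at 24 °C. Growth inhibition was read photometrically 2-3 days after application.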

The test system of another data set is Fusarium culmorum. Nature of the data set: microbe, parasite or virus in culture. Format: cell-based. The settings on record: read-out: control of Fusarium culmorum (inhibition of growth, photometric).

Usually inhibition stands for the percentage by which the read-out fell short of the control. In the case of `Nc1ncnn1-c1nc2cnccc2n1C1CCCCC1` [Compound 2, 2-(1-cyclohexylimidazo[4,5-c]pyridin-2-yl)-1,2,4-triazol-3-amine], the pest or weed control at 200 ppm (in data set [1]; in [2]; in the data set with Pyrenophora teres; in [6]) was no less than 80% each time. For the same compound, the inhibition at 20 ppm (in data set [3]; in data set [4]; in the data set with Gaeumannomyces graminis; in data set [5]) was no less than 80% throughout. For the same compound, the pest or weed control at 20 ppm in data set [7] was no less than 80%.

As usually defined, the melting point is the temperature of the solid-liquid transition. `CC=Cn1c(-n2ncnc2N)nc2cnccc21` [Compound 16, 2-(1-prop-1-enylimidazo[4,5-c]pyridin-2-yl)-1,2,4-triazol-3-amine] showed a melting point of 199 to 200 °C. Further, the pest or weed control at 200 ppm in data set [2] is no less than 80%. Besides, the pest or weed control at 200 ppm with Pyrenophora teres is no less than 80%. Also, the inhibition at 20 ppm in data set [3] is no less than 80%. Moreover, the inhibition at 20 ppm in the data set with Gaeumannomyces graminis is no less than 80%. In addition, the inhibition at 20 ppm in data set [5] was no less than 80%.

`CCn1c(-n2ncnc2N)nc2cncc(-c3ccc(C(F)(F)F)cc3)c21` [Compound 30, 2-[1-ethyl-7-[4-(trifluoromethyl)phenyl]imidazo[4,5-c]pyridin-2-yl]-1,2,4-triazol-3-amine]: the pest or weed control at 200 ppm (in data set [1]; in data set [2]; in [8]; with Pyrenophora teres) was no less than 80% each time. The inhibition at 20 ppm (in data set [3]; in data set [9]; in data set [5]; in the data set on Sclerotinia sclerotiorum) was no less than 80% throughout.

On to `CCn1c(-n2ncnc2N)nc2cncc(-c3cnn(C)c3)c21` [Compound 61, 2-[1-ethyl-7-(1-methylpyrazol-4-yl)imidazo[4,5-c]pyridin-2-yl]-1,2,4-triazol-3-amine], for which the pest or weed control at 200 ppm (in data set [1]; in data set [2]; in data set [8]; in the data set with Pyrenophora teres; in [6]) was no less than 80% throughout. Further, the inhibition at 20 ppm in data set [3], in [4] and in data set [5] was no less than 80% each time.

As for `CCn1c(-n2ncnc2N)nc2cncc(-c3ccccc3F)c21` [Compound 79, 2-[1-ethyl-7-(2-fluorophenyl)imidazo[4,5-c]pyridin-2-yl]-1,2,4-triazol-3-amine], the pest or weed control at 200 ppm (in the data set on Plasmopara viticola; in data set [1]; in data set [8]; with Pyrenophora teres) was no less than 80% each time. The inhibition at 20 ppm (in data set [3]; in data set [9]; in [10]; in [4]; with Gaeumannomyces graminis; in data set [5]) was no less than 80% each time. Moreover, the inhibition at 20 ppm (in data set [11]; with Pythium ultimum; in the data set on Fusarium culmorum; in the data set on Sclerotinia sclerotiorum) was no less than 80% each time.

On to `CCn1c(-n2ncnc2N)nc2cncc(-c3ccc(Cl)cc3F)c21` [Compound 98, 2-[7-(4-chloro-2-fluorophenyl)-1-ethylimidazo[4,5-c]pyridin-2-yl]-1,2,4-triazol-3-amine], for which the pest or weed control at 200 ppm (in data set [1]; in [8]; in the data set with Pyrenophora teres) was no less than 80% throughout. For the same compound, the inhibition at 20 ppm (in [3]; in data set [9]; in [10]; in [4]; in the data set with Gaeumannomyces graminis; in data set [5]) was no less than 80% throughout. The inhibition at 20 ppm (in data set [11]; with Fusarium culmorum; in the data set on Sclerotinia sclerotiorum) was no less than 80% throughout. Also, in [7], the pest or weed control at 20 ppm was no less than 80%.

With `CCn1c(-n2ncnc2N)nc2cncc(-c3cccnc3Cl)c21` [Compound 103, 2-[7-(2-chloropyridin-3-yl)-1-ethylimidazo[4,5-c]pyridin-2-yl]-1,2,4-triazol-3-amine], the pest or weed control at 200 ppm (in data set [1]; in data set [2]; in [8]; in the data set with Pyrenophora teres; in data set [6]) was no less than 80% in each case. Also, the inhibition at 20 ppm (in data set [3]; in data set [9]; in data set [4]; with Gaeumannomyces graminis; in [5]; in data set [11]) was no less than 80% throughout.

For `CCn1c(-n2ncnc2N)nc2cncc(/C(C)=N\OC/C=C/Cl)c21` [Compound 149], the pest or weed control at 200 ppm (in the data set on Plasmopara viticola; in data set [1]; in data set [8]; with Pyrenophora teres) was no less than 80% each time. Further, the inhibition at 20 ppm in data set [3], in [9], in data set [10], in data set [4], in data set [5] and in [11] was no less than 80% throughout. Further, the inhibition at 20 ppm with Pythium ultimum, in the data set with Fusarium culmorum and in the data set with Sclerotinia sclerotiorum was no less than 80% each time. The pest or weed control at 20 ppm in [7] is no less than 80%.

For the origin of these results see patent US9512120B2, “Microbicidally active imidazopyridine derivatives” (Syngenta Participations AG, priority 2013, dated 2016).
